We go through 4 molecules from patent publication US6211439A, “Herbicide resistance in plants” (MGI Pharma, Inc, priority 1995, dated 2001).

For assay [1], the system named is unselected maize callus tissue. Put plainly: Callus culture growth inhibition, unselected tissue. The note with it: Zea mays, 336 h, read-out: level giving a 50% growth inhibition. It is filed as cell-based. How it is done:
(§1) Therefore the effects of 214 were determined on callus growth. Quantities of tissue averaging 90 mg in size were transferred to nutrient agar maintenance media containing concentrations of 214 ranging from 0.003 to 3 mg per liter. Eight tissue pieces were placed on each plate with three plates per herbicide concentration. After 14 days growth, the tissue was weighed again.

The test system of another assay is line XA17 tissue. Kind of assay: Callus growth inhibition, resistant line XA17. It is filed as cell-based, maize. The note with it: Zea mays, 336 h, read-out: level giving a 50% growth inhibition. How it is done:
as §1
Initially, the maximum level of 214 in which line XA17 would grow stably was determined. Stock tissue which had been maintained in the presence of 0.1 mg per liter 214 was transferred to media containing 214 levels ranging up to 30 mg per liter. Tissue was maintained for several subculture intervals and the growth rate evaluated.

Assay [2] relates to AHAS activity of line XA17 tissue. Put plainly: AHAS activity assay, line XA17 tissue. It is filed as biochemical, maize. The settings on record: for IC50: AHAS activity of line XA17 tissue, read-out: concentration inhibiting AHAS activity 50%. As for the experimental part: (§2) Assays were conducted as a modification of the procedure of Smith et al. (1979, Molec. Gen. Genet. 169: 299-314). Plant cell culture material was ground with sand in a cold mortar and pestle in an equal quantity (w/v) of cell disruption media containing 0.05 M potassium phosphate (pH 7.0), 0.1 mM MgSO4, and 0.5 mM dithiothreitol. The preparation was centrifuged at 11,000×g for 20 minutes and the supernatant assayed for AHAS activity. Assays were conducted in 1 ml volumes containing 0.05 M potassium phosphate (pH 8.0), 40 mM pyruvate, 5 mM MgCl2, 0.1 mM thiamine pyrophosphate, 0.2 ml cell extract, and various concentrations of the herbicide of interest. The reaction mixtures were incubated at 30° C. for 75 minutes and the reaction terminated with the addition of 0.1 ml of 50% (v/v) H2 SO4. Following further incubation at 40° C. for 20 minutes, the acetoin formed from acetolactate by acidification was quantitated using the method of Westerfield (1945, J. Biol. Chem. 161: 495). To 0.2 ml of reaction mixture, 0.8 ml of water, 0.5 ml of 0.5% (w/v) creatine, and 0.5 ml of 5% (w/v) naphthol in 10% (w/v) NaOH was added. After mixing, solutions were incubated at room temperature for one hour. The development of pink color was quantitated by measuring light absorbance at 530 nm.
Assays were conducted to determine if acetohydroxyacid synthase extracted from line XA17 tissue was altered with respect to herbicide sensitivity. Such a change would signify that an alteration of this enzyme conferred the herbicide resistance. Assays were conducted as described supra.

The subject of the next assay is control seedlings. Kind of assay: Seedling assay, control (herbicide sensitive) seedlings. The settings on record: Zea mays, read-out: concentration inhibiting shoot growth 50%. It is filed as in vivo, maize. From the text: Seeds to be used as controls in the heritability assay were obtained from regenerated plants from an herbicide sensitive cell line of the same genetic background as line XA17. These regenerated plants were crossed with pollen obtained from a herbicide sensitive inbred B73 plant grown from seed. Seeds were harvested approximately forty days after pollination.
(§3) Twenty control seeds and ten XA17 seeds were surface sterilized with 2.6% sodium hypochlorite for twenty minutes and then washed with sterile distilled water. The seed was imbibed overnight in sterile water containing a small quantity of the fungicide, captan (N-trichloromethylthio-4-cyclohexene-1,2-dicarboximide). The mature embryos were then excised from the seed and plated scutellum side down on solid MS media without 2,4-D. Ten control seeds were plated on media containing no 214 and ten were plated in the presence of 6×10^-8M 214 which had been incorporated into the medium after autoclaving but before gelling. All ten XA17 seeds were plated in the presence of 6×10^-8 M 214. Seedlings were evaluated seven days after plating.
(§4) XA17 seeds homozygous for the resistance trait were obtained as described in Section 6.4.6. […] Assays were conducted as described in Section 6.4.5.

Assay [3] deals with XA17 seedlings homozygous for the herbicide resistance trait. Kind of assay: Seedling assay, XA17 seedlings homozygous for the resistance trait. It is filed as in vivo, maize. The note with it: for resistance of XA17 homozygous seedlings: vs control seedlings. As for the experimental part: as §3, §4
In another assay the test system is QJ22 seedlings. Kind of assay: Seedling assay, QJ22 seedlings homozygous for the resistance trait. The note with it: seedling assays. It is filed as in vivo, maize. The text has this:
Plants were regenerated from cell line QJ22 and seed obtained as described previously for XA17, supra. […] Seeds which are uniformly homozygous for the resistance trait were obtained as described for XA17, supra.

Another assay relates to Tomato callus lines. The note with it: callus cultures initiated from regenerated plants (Thomas and Pratt, 1983); cited from earlier work.
The test system of assay [4] is maize cell suspension cultures. Kind of assay: Reversal of herbicide growth inhibition by leucine, valine and isoleucine. It is filed as cell-based. The settings on record: 1 mM each of leucine, isoleucine, and valine; cell suspension cultures. How it is done: Growth inhibition studies were carried out in 125 ml flasks containing 30 ml of test media. 997 was filter sterilized and added to cooling media following autoclaving. Test media were innoculated with cells to give a settled cell volume (15 minutes without centrifugation) of 0.2 ml per 10 ml of suspension. After either six or seven days growth settled cell volumes were again quantitated.
Cells were tested to determine whether the herbicide induced inhibition of growth was the result of the decreased availability of the three branched chain amino acids. Cells were exposed to toxic levels of 997 (1×10^-6 M) in media either supplemented with 1 mM concentrations of leucine, valine, and isoleucine or with no supplementation. Culture growth rates in the absence of amino acid supplementation and in the presence of 1×10^-6 M 997 were reduced to 16% that of herbicide free cultures.
Experiments were conducted to determine the optimum supplementation levels of each of the three amino acids to obtain maximum herbicide protection and for gaining insight into the site of action of the compound.

For assay [5], the system named is acetohydroxyacid synthase (AHAS). Put plainly: AHAS activity assay, extract of maize cell cultures / control tissue. It is filed as biochemical. How it is done: as §2, with “Plant” for “Assays were conducted as a modification of the procedure of Smith et al. (1979, Molec. Gen. Genet. 169: 299-314). Plant”, “Following further incubation at 40° C. for 20 minutes, the acetoin formed from acetolactate by acidification was quantitated using the method of Westerfield (1945, J. Biol. Chem. 161: 495).” left out, “hour.” for “hour. The development of pink color was quantitated by measuring light absorbance at 530 nm.”

The subject of assay [6] is Callus tissue from line QJ22. Put plainly: Callus growth inhibition, line QJ22. It is filed as cell-based, maize. The settings on record: line QJ22 vs control tissue; based on herbicide amount giving 50% reduction in growth rate. As for the experimental part: (§5) Callus tissue from line QJ22 was tested also with the compound 567. The numbers represent the fold increase in herbicide concentration that can be tolerated by each of the cell lines as compared to control tissue. The values were calculated based on the amount of herbicide that gave a 50% reduction in growth rate.

The subject of assay [7] is Callus tissue from line UV18. Put plainly: Callus growth inhibition, line UV18. It is filed as cell-based, maize. The note with it: line UV18 vs control tissue; based on herbicide amount giving 50% reduction in growth rate. As for the experimental part: The UV18 cell line was first observed after 25 weeks of selection comprising 9 subculture intervals. The tissue in the selection procedure had been exposed to 0.1 mg per liter 214 for four subculture intervals followed by exposure to 0.3 mg per liter 214 for four subculture intervals. UV18 was identified during the ninth subculture as a rapidly growing sector of tissue with good morphology.
as §5

In brackets after ≈: the same amount, converted by molar mass. Like-named read-outs stand apart in the source and are kept apart here.

For the molecule `COc1nc(C)nc(NC(=O)NS(=O)(=O)c2ccccc2Cl)n1` [chlorsulfuron, 2-chloro-N-[(4-methoxy-6-methyl-1,3,5-triazin-2-yl)aminocarbonyl]benzenesulfonamide], the IC50 was determined as 0.01 µg/mL (≈ 0.028 µM) in [1]; 10 µg/mL (≈ 28 µM) in the assay with line XA17 tissue; 0.3 µM in [2]; 0.01 µM in the assay with control seedlings; 0.1 µM in assay [3] (Zea mays, read-out: concentration inhibiting shoot growth 50%). The “resistance of XA17 homozygous seedlings” value in [3] is on record as 10 fold. The “tolerance of QJ22 homozygous seedlings compared to control seedlings” value (shortened to “tolerance … compared to control seedlings”) in the assay with QJ22 seedlings is listed as “no tolerance”.
For `C[n+]1ccc(-c2cc[n+](C)cc2)cc1` [paraquat], in the assay on Tomato callus lines, the “increase over wild-type in resistance” value is reported as at least 30 fold.
As for `CCc1cnc(C2=NC(=O)C(C)(C(C)C)N2)c(C(=O)O)c1` (stereo not drawn) [compound 499, 5-ethyl,2-(5-isopropyl-5-methyl-4-oxo-2-imidazolin-2-yl)nicotinic acid], in assay [4], the “effect of media supplementation with leucine, isoleucine, valine on growth inhibition” value is listed as “reversed the growth inhibitory effects”. The “effect on AHAS enzyme activity” value in assay [5] (AHAS activity from maize cell cultures) is listed as “inhibited the enzyme activity”. Besides, the IC50 in assay [5] (AHAS activity of control tissue, read-out: concentration inhibiting AHAS activity 50%) is 1 to 10 µM; in assay [1], 0.1 to 0.3 µg/mL (≈ 0.346 to 1.04 µM); in the assay on line XA17 tissue, above 30 µg/mL; in [2] it was 3000 to 30000 µM. Besides, the “change in herbicide sensitivity of AHAS, line XA17 vs control, on a concentration basis” value in assay [2] (maize, ahas, line xa17) was at least 1000 fold. The “Callus Growth Fold Increase in Tolerance” value is recorded as 30-50 fold in assay [6] and 100 fold in assay [7]. The “tolerance … compared to control seedlings” value with QJ22 seedlings is given as 30 fold.
With `Cc1cc(C)n2nc(S(=O)(=O)Nc3c(Cl)cccc3Cl)nc2n1` [compound 567, 5,7-dimethyl-N-(2,6-dichlorophenyl)-1,2,4-triazolo[1,5-a)pyrimidine-2-sulfonamide], the IC50 in assay [1] is 0.1 to 0.3 µg/mL (≈ 0.269 to 0.806 µM); in the assay on line XA17 tissue (line XA17, two week growth inhibition study), above 30 µg/mL; in the assay on control seedlings (control seedlings), 0.1 µM. In addition, in assay [3] (3×10^-6 M, seedlings homozygous for the resistance trait), the “shoot growth inhibition at the highest concentration tested” value is “no inhibition”. The “resistance of XA17 homozygous seedlings” value in assay [3] is reported as “at least 30 fold”. Further, in the assay with QJ22 seedlings, the “tolerance … compared to control seedlings” value is “no tolerance”.
